# Source: PMC10600239, “Selective MCL-1 inhibitor ABBV-467 is efficacious in tumor models but is associated with cardiac troponin increases in patients” (Communications Medicine, 2023)
# “And” between values parts separate entries of the source, which are not always exact repeats. Equal entries are not always repeated.
# System: OPM-2 xenografts
# Assay: OPM-2 xenograft efficacy (tumor volume, body weight)
# Format: in vivo, mouse
# Conditions: for Tumor Volume (mm³) Day 27, Mean: group mean; for Tumor Volume (mm³) Day 27, Median: group median; for Tumor Volume (mm³) Day 27 / Tumor Volume (mm³) Day 30 / Tumor Volume (mm³) Day 34: individual animals; for Tumor Volume (mm³) Day 23 (individual animals) / Tumor Volume Day 23, Mean / Tumor Volume Day 23, Median / % T/C (mean) / % T/C (median): Day 23
# Description: All animal studies were conducted in accordance with the guidelines approved by the Institutional Animal Care and Use Committees of AbbVie. The research protocol was approved by In Vivo Pharmacology at AbbVie prior to study initiation but was not publicly registered or disclosed. Female C.B-17 SCID-beige mice (AMO-1, OPM-2, NCI-H929, and OCI-AML2 xenografts) and female NSG mice (MV4-11-Red.Fluc systemic) were purchased from Charles River Laboratories (Wilmington, MA). Animals were housed in a light cycle-controlled room with HEPA filtration at 22 °C. Animals had nesting and climbing cage topper as the primary environmental enrichment. Animals were inoculated subcutaneously in the right flank with 5 × 10^6 (AMO-1, OPM-2, NCI-H929, and OCI-AML2) or intravenous (IV) with 5 × 10^6 (MV4-11-Red.Fluc). The inoculation volume (0.2 mL) comprised a 50:50 mixture of cells in growth media and Matrigel (BD Biosciences) for subcutaneous injections and 100% phosphate-buffered saline for IV administration. All cell lines used in this publication were authenticated using IDEXX for STR profiling as well as their IMPACT and human IMPACT panels for pathogen screening. Electronic calipers were used to measure the length and width of each tumor 2 to 3 times per week. Tumor volume was estimated by applying the following equation: volume = length × width^2/2. All groups remained blinded during measurements and dosing; only veterinary staff were aware of group identity. When tumors reached approximately 200 mm^3, mice were randomized by match and distributed into treatment and control groups. All xenograft trials were conducted using 5 to 10 mice per group, and all mice were ear tagged and monitored individually throughout the studies. Any animal with a tumor above 2000 mm^3 or 15% loss in body weight was euthanized and removed from the study. Tumor burden in the systemic MV4-11-Red.Fluc experiment was measured using an IVIS® spectrum from PerkinElmer by taking the total photon flux of the entire dorsal side of an individual mouse. Ten minutes prior to imaging, animals received intraperitoneally 0.2 mL of a 15-mg/mL solution of D-Luciferin (PerkinElmer, Catalog #122799) formulated in 100% phosphate-buffered saline. Animals were anesthetized using 3.5% isoflurane and maintained using 2%. Six days after inoculation, animals were imaged and randomized into vehicle and treatment groups at a total flux of ~1 × 10^8. A background control mouse that was tumor naive but received D-Luciferin was placed in the upper left corner of each image. The total flux from this animal was subtracted from the total flux of each animal present in the image.
# For in vivo studies, maximal tumor growth inhibition (TGI) was calculated as the greatest treatment response using the following equation: Maximal TGI = (1 − mean tumor volume of the treated group/mean tumor volume of the vehicle control group) × 100. The tumor growth delay (TGD) percentage was determined as the percentage increase of the median time period for the treatment group to reach an arbitrary tumor volume of 1000 mm^3 relative to the vehicle control group. […] A power analysis was conducted using historical data to determine the number of animals required to yield significance of 0.05 at a 30% difference. There were no animals excluded. Data from experiments in vivo were analyzed using the student’s t-test for TGI values and the Mann–Whitney U test for TGD using Excel and GraphPad Prism. Fisher’s exact test was used to probe significance of differences in response frequency.
# [1] = 6.25 mg/kg q7dx3 IV, mean(T)/mean(C)
# [2] = 6.25 mg/kg q7dx3 IV, median(T)/median(C)
# [3] = 6.25 mg/kg q7dx3 IV, SCID-beige mice
# [4] = 6.25 mg/kg q7dx3 IV, OPM-2 (DSMZ) xenograft, SCID-beige mice
# [5] = 25 mg/kg q7dx3 IV, mean(T)/mean(C)
# [6] = 25 mg/kg q7dx3 IV, median(T)/median(C)
# [7] = 25 mg/kg q7dx3 IV, SCID-beige mice
# [8] = 25 mg/kg q7dx3 IV, OPM-2 (DSMZ) xenograft, SCID-beige mice
# [9] = OPM-2 (DSMZ) xenograft, SCID-beige mice, 6.25 mg/kg q7dx3 IV
# [10] = OPM-2 (DSMZ) xenograft, SCID-beige mice, 25 mg/kg q7dx3 IV
structure (smiles),measurement,setting,value
Cc1c(Cl)c2c(Cl)c(C)c1-c1c(-c3ccc(F)cc3)sc3ncnc(c13)O[C@@H](C(=O)O)Cc1cc(ccc1OCc1ccnc(-c3ccc(OC[C@H]4COCCO4)cc3)n1)OC[C@@H](CN1CCN(C)CC1)O2 [Compound A-1747745],% Mortality,"6.25 mg/kg IV q7dx3, clinical observation, SCID-beige mice, OPM-2 (DSMZ) xenograft",100.00%
same,"Tumor Volume (mm³) Day 27, Mean",6.25 mg/kg q7dx3 IV,468.28 mm³
same,"Tumor Volume (mm³) Day 27, Median",6.25 mg/kg q7dx3 IV,424.66 mm³
same,Tumor Volume (mm³) Day 27,6.25 mg/kg q7dx3 IV,369 mm³ and 671 mm³ and 322 mm³ and 348 mm³ and 352 mm³ and 673 mm³ and 481 mm³ and 531 mm³
same,"Body Weight Day 27, % T/C (mean)",[1],97.79%
same,"Tumor Volume Day 27, % T/C (mean)",[1],49.20%
same,"Body Weight Day 27, % T/C (median)",[2],97.79%
same,"Tumor Volume Day 27, % T/C (median)",[2],41.20%
same,"% T/C (mean), Tumor Volume Day 30",6.25 mg/kg q7dx3 IV,42.91%
same,"% T/C (median), Tumor Volume Day 30",6.25 mg/kg q7dx3 IV,42.72%
same,"Tumor Volume Day 30, Mean",6.25 mg/kg q7dx3 IV,634.52 mm³
same,"Tumor Volume Day 30, Median",6.25 mg/kg q7dx3 IV,618.80 mm³
same,Tumor Volume (mm³) Day 30,[3],375 mm³ and 897 mm³ and 567 mm³ and 528 mm³ and 560 mm³ and 806 mm³ and 673 mm³ and 670 mm³
same,"Tumor Volume Day 34, Mean",6.25 mg/kg q7dx3 IV,930.42 mm³
same,"Tumor Volume Day 34, Median",6.25 mg/kg q7dx3 IV,940.62 mm³
same,Tumor Volume (mm³) Day 34,[3],591 mm³ and 1061 mm³ and 690 mm³ and 703 mm³ and 1071 mm³ and 821 mm³ and 1142 mm³ and 1365 mm³
same,Tumor Volume (mm³) Day 23 (individual animals),[4],264 mm³ and 376 mm³ and 277 mm³ (2×) and 196 mm³ and 349 mm³ and 392 mm³ and 253 mm³
same,"Tumor Volume Day 23, Mean",[4],298.00 mm³
same,"Tumor Volume Day 23, Median",[4],276.63 mm³
same,% T/C (mean),"6.25 mg/kg q7dx3 IV, OPM-2 (DSMZ) xenograft, mean(T)/mean(C)",68.08%
same,% T/C (median),"6.25 mg/kg q7dx3 IV, OPM-2 (DSMZ) xenograft, median(T)/median(C)",67.57%
same,% Mortality,"25 mg/kg IV q7dx3, clinical observation, SCID-beige mice, OPM-2 (DSMZ) xenograft",0.00%
same,% BW Loss,"25 mg/kg IV q7dx3, day 27, clinical observation",-2% (day 27)
same,"Tumor Volume (mm³) Day 27, Mean",25 mg/kg q7dx3 IV,75.56 mm³
same,"Tumor Volume (mm³) Day 27, Median",25 mg/kg q7dx3 IV,79.55 mm³
same,Tumor Volume (mm³) Day 27,25 mg/kg q7dx3 IV,109 mm³ and 83 mm³ and 115 mm³ and 60 mm³ and 69 mm³ and 4 mm³ and 77 mm³ and 88 mm³
same,"Body Weight Day 27, % T/C (mean)",[5],101.28%
same,"Tumor Volume Day 27, % T/C (mean)",[5],7.94%
same,"Body Weight Day 27, % T/C (median)",[6],101.28%
same,"Tumor Volume Day 27, % T/C (median)",[6],7.72%
same,"% T/C (mean), Tumor Volume Day 30",25 mg/kg q7dx3 IV,2.78%
same,"% T/C (median), Tumor Volume Day 30",25 mg/kg q7dx3 IV,0.28%
same,"Tumor Volume Day 30, Mean",25 mg/kg q7dx3 IV,41.06 mm³
same,"Tumor Volume Day 30, Median",25 mg/kg q7dx3 IV,4.00 mm³
same,Tumor Volume (mm³) Day 30,[7],135 mm³ and 4 mm³ (5×) and 87 mm³ (2×)
same,"Tumor Volume Day 34, Mean",25 mg/kg q7dx3 IV,4.00 mm³
same,"Tumor Volume Day 34, Median",25 mg/kg q7dx3 IV,4.00 mm³
same,Tumor Volume (mm³) Day 34,[7],4 mm³
same,Tumor Volume (mm³) Day 23 (individual animals),[8],275 mm³ and 201 mm³ and 232 mm³ and 269 mm³ and 236 mm³ and 126 mm³ and 388 mm³ and 205 mm³
same,"Tumor Volume Day 23, Mean",[8],241.42 mm³
same,"Tumor Volume Day 23, Median",[8],233.81 mm³
same,% T/C (mean),"25 mg/kg q7dx3 IV, OPM-2 (DSMZ) xenograft, mean(T)/mean(C)",55.16%
same,% T/C (median),"25 mg/kg q7dx3 IV, OPM-2 (DSMZ) xenograft, median(T)/median(C)",57.11%
same,"Tumor Volume Day 20, Mean",[9],237.41 mm³
same,"Tumor Volume Day 20, Median",[9],234.06 mm³
same,"Tumor Volume (mm³) Day 20, individual animals","OPM-2 (DSMZ) xenograft, SCID-beige mice, 6.25 mg/kg q7dx3 IV, 6.25 mg/kg",217 mm³ and 238 mm³ and 188 mm³ and 184 mm³ and 290 mm³ and 300 mm³ and 252 mm³ and 230 mm³
same,"Tumor Volume Day 20, % T/C (mean)","OPM-2 (DSMZ) xenograft, SCID-beige mice, 6.25 mg/kg q7dx3 IV, mean(T)/mean(C)",99.97%
same,"Tumor Volume Day 20, % T/C (median)","OPM-2 (DSMZ) xenograft, SCID-beige mice, 6.25 mg/kg q7dx3 IV, median(T)/median(C)",101.50%
same,"Body Weight Day 21, % T/C (mean)","OPM-2 (DSMZ) xenograft, SCID-beige mice, 6.25 mg/kg q7dx3 IV, Day 21, mean(T)/mean(C)",100.00%
same,"Body Weight Day 21, % T/C (median)","OPM-2 (DSMZ) xenograft, SCID-beige mice, 6.25 mg/kg q7dx3 IV, Day 21, median(T)/median(C)",100.00%
same,"Tumor Volume Day 20, Mean",[10],237.54 mm³
same,"Tumor Volume Day 20, Median",[10],238.03 mm³
same,"Tumor Volume (mm³) Day 20, individual animals","OPM-2 (DSMZ) xenograft, SCID-beige mice, 25 mg/kg q7dx3 IV, 25 mg/kg",283 mm³ and 220 mm³ and 249 mm³ and 228 mm³ and 248 mm³ and 178 mm³ and 301 mm³ and 193 mm³
same,"Tumor Volume Day 20, % T/C (mean)","OPM-2 (DSMZ) xenograft, SCID-beige mice, 25 mg/kg q7dx3 IV, mean(T)/mean(C)",100.03%
same,"Tumor Volume Day 20, % T/C (median)","OPM-2 (DSMZ) xenograft, SCID-beige mice, 25 mg/kg q7dx3 IV, median(T)/median(C)",103.23%
